Where no end group is shown, it is not given here.
Legend:
G+ strains = assay: Antibacterial assay, MIC range over G+ strains; assay type: cell-based; details: range over the five G+ test strains
Description: (§1) The synthesized peptides were screened for antibacterial activity against five strains of G+ bacteria: B. subtilis (Bs, ATCC 23857), C. glutamicum (Cg, ATCC 13032), S. aureus (Sa, ATCC 9144), Micrococcus luteus (Ml), B. megaterium (Bm) (the last two were obtained from professor Olaf B. Styrvold, UiT The Arctic University of Norway).
(§2) Two strains of G- bacteria, P. aeruginosa (Pa, ATCC 27853) and E. coli (Ec, ATCC 25922), were also used. Cultures stored at -80 °C in glycerol were transferred to Müller–Hinton plates (MH, Difco Laboratories, Detroit, MI, USA) and incubated for 24 h at 35 °C. Colonies of each strain were transferred to 5 mL liquid MH medium and left shaking (600 rpm) at room temperature overnight. An aliquot of actively growing bacteria (20 µL) was inoculated in 5 mL MH medium and left shaking for 2 h at room temperature. In order to have a sensitive bioassay, the bacterial cultures were diluted with medium to only 2.5–3 × 10^4 bacteria/mL and an aliquot of 50 µL was added to each well in 96 microwell plates (Thermo Fisher Scientific, Roskilde, Denmark) preloaded with peptide solution (50 µL). The antibacterial assays were performed as previously described. The microtiter plates were incubated for 24 h at 35 °C with optical density (595 nm) recorded every hour using an Envision 2103 multilabel reader, controlled by a Wallac Envision manager (PerkinElmer, Waltham, MA, USA). […]

G- strains = assay: Antibacterial assay, MIC range over G- strains; assay type: cell-based; details: range over the two G- test strains
Description: as §1, §2

[1] = test system: Bacillus subtilis (ATCC 23857); assay: microbe, parasite or virus in culture; assay type: cell-based; details: ATCC 23857, 24 h
Description: as §1
(§3) Two strains of G- bacteria, P. aeruginosa (Pa, ATCC 27853) and E. coli (Ec, ATCC 25922), were also used. Cultures stored at -80 °C in glycerol were transferred to Müller–Hinton plates (MH, Difco Laboratories, Detroit, MI, USA) and incubated for 24 h at 35 °C. Colonies of each strain were transferred to 5 mL liquid MH medium and left shaking (600 rpm) at room temperature overnight. An aliquot of actively growing bacteria (20 µL) was inoculated in 5 mL MH medium and left shaking for 2 h at room temperature. In order to have a sensitive bioassay, the bacterial cultures were diluted with medium to only 2.5–3 × 10^4 bacteria/mL and an aliquot of 50 µL was added to each well in 96 microwell plates (Thermo Fisher Scientific, Roskilde, Denmark) preloaded with peptide solution (50 µL). The antibacterial assays were performed as previously described. The microtiter plates were incubated for 24 h at 35 °C with optical density (595 nm) recorded every hour using an Envision 2103 multilabel reader, controlled by a Wallac Envision manager (PerkinElmer, Waltham, MA, USA). The minimum inhibitory concentration (MIC) was defined as the sample concentration showing an optical density less than 10% of the negative (growth) control, consisting of bacteria and MQ-H2O. Oxytetracycline (concentrations ranging from 20–0.02 µg/mL, Sigma-Aldrich) and indolicidin (concentration ranging from 200–0.2 µg/mL, Sigma-Aldrich) served as a positive (inhibition) control. The synthetic peptides were tested for antibacterial activity in concentrations ranging from 250 to 0.5 µg/mL in two-fold dilutions. All tests were performed in triplicates.

[2] = test system: Corynebacterium glutamicum (ATCC 13032); assay: microbe, parasite or virus in culture; assay type: cell-based; details: ATCC 13032, 24 h
Description: as §1, §3

Micrococcus luteus = assay: microbe, parasite or virus in culture; assay type: cell-based; details: 24 h
Description: as §1, §3

[3] = test system: Staphylococcus aureus (ATCC 9144); assay: microbe, parasite or virus in culture; assay type: cell-based; details: ATCC 9144, 24 h
Description: as §1, §3

Bacillus megaterium = assay: microbe, parasite or virus in culture; assay type: cell-based; details: Bacillus, 24 h
Description: as §1, §3

Rhodotorula sp. = assay: microbe, parasite or virus in culture; assay type: cell-based; details: 48 h
Description: (§4) StAMP-1–11 were screened for antifungal activity against C. albicans (Ca, ATCC 10231), A. pullulans (Ap) and Rhodotorula sp. (Rh) (the last two were obtained from professor Arne Tronsmo, The Norwegian University of Life Sciences, Ås, Norway). The antifungal assay was performed as previously described with a few modifications. Briefly, fungal spores were dissolved in potato dextrose broth (Difco Laboratories) with 2% D(+)-glucose (Merck, Darmstadt, Germany) to a concentration of 4 × 10^5 spores/mL. The spores (50 µL) were inoculated on 96 microwell plates (Thermo Fisher Scientific) containing the synthetic peptides (50 µL) and controls (water or antibiotic). The peptides were diluted in MQ-H2O at final concentrations ranging from 250–3.9 µg/mL in two-fold serial dilutions. Triclosan (Sigma-Aldrich, Steinheim, Germany) was used as a positive (antifungal) control (32–0.25 µg/mL), and MQ-H2O as a negative (growth) control. Cultures were grown in room temperature for 24 h (Ca) and 48 h (Ap and Rh). Growth inhibition was determined by measuring OD values at 600 nm by a microplate reader (Synergy H1 Hybrid Multi-Mode Reader, BioTek, Winooski, VT, USA). […] All experiments were done in triplicate.

[4] = test system: Candida albicans (ATCC 10231); assay: microbe, parasite or virus in culture; assay type: cell-based; details: ATCC 10231, 24 h
Description: as §4

Aureobasidium pullulans = assay: microbe, parasite or virus in culture; assay type: cell-based; details: 48 h
Description: as §4

[5] = test system: Escherichia coli (ATCC 25922); assay: microbe, parasite or virus in culture; assay type: cell-based; details: ATCC 25922, 24 h
Description: as §3

[6] = test system: Pseudomonas aeruginosa (ATCC 27853); assay: microbe, parasite or virus in culture; assay type: cell-based; details: ATCC 27853, 24 h
Description: as §3

[7] = test system: B. subtilis 168 (pCSS962); assay: Real-time membrane integrity assay (luciferase, D-luciferin); assay type: cell-based, Bacillus subtilis; details: lowest concentration tested
Source text: (§5) Based on the results from antibacterial screening and the bacterial killing experiment, StAMP-6-10 were further studied for their immediate effect on the membrane integrity and viability on B. subtilis 168 and E. coli K12. In the integrity assay, both bacteria are carrying the luciferase lucGR gene within the plasmid pCSS962. When a compound disrupts the membrane, externally added D-luciferin can diffuse into the cells and function as a substrate for the luciferase enzyme. This, in turn, causes the emission of light as relative luminescence units (RLU), a signal whose strength is relative to the degree of membrane disruption in living cells. If the test compound affects the membrane sufficiently to cause bacterial death, the RLU signal will increase until the bacterial ATP storage is empty. At this time, the RLU signal will decrease in line with the decreasing ATP concentrations, as the enzymatic reaction gradually stops. […] Following membrane disruption, the RLU will reach its peak and start to decrease due to reduced cell numbers. In the assay setup used herein, RLU was measured over a period of 3 min. The short time period was selected as many membrane disruptive compounds usually affect the bacterial membranes immediately. […]

E. coli K12 (pCGLS-11) = assay: Real-time bacterial cell viability assay (lux operon); assay type: cell-based, Escherichia coli; details: lowest concentration tested
Source text: (§6) A real-time cell viability assay was used to investigate the bactericidal effect of StAMP-6-10. B. subtilis 168 contains a chromosomally integrated lux operon, and E. coli K12 a plasmid-borne lux operon. Both strains emit light as long as they have an active metabolism. If a compound reduces the metabolic activity of the bacteria it will reduce the viability of the cells. […] The decrease in light emission caused by StAMP-8-10 shown in both assays confirmed that these three peptides killed both strains at 50 µg/mL, but not as rapidly as the control chlorhexidine. The same activity observed for StAMP-8-10 in the membrane integrity assay was also observed in both viability assays (Figures S7–S12). […] Only at the lowest concentration tested (0.8 µg/mL), was there no observed membrane activity for these assays.
(§7) A real-time cell viability assay (modified from) was performed using B. subtilis 168 carrying an optimized luxABCDE operon controlled by the promoter Pveg, and E. coli K12 carrying the plasmid pCGLS-11 [53] with the luxCDABE operon from Xenorhabdus luminescence. The procedure was conducted as previously described. The bacteria (~5 × 10^7 bacteria/mL) were subjected to ranging concentrations of StAMP-6-10 (50–3.1 µg/mL) and the positive control to chlorhexidine acetate (assay concentrations 100–1.6 µg/mL). MQ-H2O was used as a negative control. […]

E. coli K12 (pCSS962) = assay: Real-time membrane integrity assay (luciferase, D-luciferin); assay type: cell-based, Escherichia coli; details: lowest concentration tested
Source text: as §5

B. subtilis 168 = assay: Real-time bacterial cell viability assay (lux operon); assay type: cell-based, Bacillus subtilis; details: lowest concentration tested
Source text: as §6, §7

three fungal strains = assay type: cell-based; details: 24 h
Description: as §4, with “Cultures were grown in room temperature for 24 h (Ca) and 48 h (Ap and Rh).” left out

[8] = test system: all seven bacterial test strains; assay type: cell-based; details: 24 h
Description: as §1, §2

Compound: GKKPWWWKAK-NH2 [StAMP-7]
- MIC values, range against G+ strains (G+ strains): 1.0 to 125 mg/L
- MIC values, range against G- strains (G- strains): 31.3 to 250 mg/L
- Antimicrobial Activity (MIC) Bs [1]: 3.9 mg/L
- Antimicrobial Activity (MIC) Cg [2]: 2.0 mg/L
- Antimicrobial Activity (MIC) Ml (Micrococcus luteus): 31.3 mg/L
- Antimicrobial Activity (MIC) Sa [3]: 125 mg/L
- Antimicrobial Activity (MIC) Bm (Bacillus megaterium): 1.0 mg/L
- Antimicrobial Activity (MIC) Rh (Rhodotorula sp.): 15.6 mg/L
- Antimicrobial Activity (MIC) Ca [4]: 31.3 mg/L
- Antimicrobial Activity (MIC) Ap (Aureobasidium pullulans): 15.6 mg/L
- Antimicrobial Activity (MIC) Ec [5]: 31.3 mg/L
- Antimicrobial Activity (MIC) Pa [6]: 250 mg/L

Compound: [H]/N=C(\N/C(=N/[H])NCCCCCCNC(=N)NC(=N)Nc1ccc(Cl)cc1)Nc1ccc(Cl)cc1 [Chlorhexidine]
- concentration with no observed membrane activity [7]: 0.8 µg/mL
- concentration with no observed membrane activity (E. coli K12 (pCGLS-11)): 0.8 µg/mL
- concentration with no observed membrane activity (E. coli K12 (pCSS962)): 0.8 µg/mL
- concentration with no observed membrane activity (B. subtilis 168): 0.8 µg/mL

Compound: GKKWWWWKAK-NH2 [StAMP-8]
- MIC, range against the three fungal strains (three fungal strains): 7.8 to 15.6 mg/L
- Antimicrobial Activity (MIC) Bs [1]: 7.8 mg/L
- Antimicrobial Activity (MIC) Cg [2]: 7.8 mg/L
- Antimicrobial Activity (MIC) Ml (Micrococcus luteus): 15.6 mg/L
- Antimicrobial Activity (MIC) Sa [3]: 125 mg/L
- Antimicrobial Activity (MIC) Bm (Bacillus megaterium): 3.9 mg/L
- Antimicrobial Activity (MIC) Rh (Rhodotorula sp.): 15.6 mg/L
- Antimicrobial Activity (MIC) Ca [4]: 15.6 mg/L
- Antimicrobial Activity (MIC) Ap (Aureobasidium pullulans): 7.8 mg/L
- Antimicrobial Activity (MIC) Ec [5]: 62.5 mg/L
- Antimicrobial Activity (MIC) Pa [6]: 125 mg/L

Compound: GKKWGWWKAK-NH2 [StAMP-6]
- Antimicrobial Activity (MIC) Bs [1]: 3.9 mg/L
- Antimicrobial Activity (MIC) Cg [2]: 3.9 mg/L
- Antimicrobial Activity (MIC) Ml (Micrococcus luteus): 62.5 mg/L
- Antimicrobial Activity (MIC) Sa [3]: 250 mg/L
- Antimicrobial Activity (MIC) Bm (Bacillus megaterium): 1.0 mg/L
- Antimicrobial Activity (MIC) Rh (Rhodotorula sp.): 31.3 mg/L
- Antimicrobial Activity (MIC) Ca [4]: 62.5 mg/L
- Antimicrobial Activity (MIC) Ap (Aureobasidium pullulans): 62.5 mg/L
- Antimicrobial Activity (MIC) Ec [5]: 62.5 mg/L
- Antimicrobial Activity (MIC) Pa [6]: >250 mg/L

Compound: GKKPGWWKAK-NH2 [StAMP-4]
- Antimicrobial Activity (MIC) Bs [1]: 125 mg/L
- Antimicrobial Activity (MIC) Cg [2]: 3.9 mg/L
- Antimicrobial Activity (MIC) Ml (Micrococcus luteus): 125 mg/L
- Antimicrobial Activity (MIC) Sa [3]: >250 mg/L
- Antimicrobial Activity (MIC) Bm (Bacillus megaterium): 3.9 mg/L
- Antimicrobial Activity (MIC) Rh (Rhodotorula sp.): 31.3 mg/L
- Antimicrobial Activity (MIC) Ca [4]: 62.5 mg/L
- Antimicrobial Activity (MIC) Ap (Aureobasidium pullulans): 62.5 mg/L
- Antimicrobial Activity (MIC) Ec [5]: >250 mg/L
- Antimicrobial Activity (MIC) Pa [6]: >250 mg/L

Compound: GRRPWWWRAR-NH2 [StAMP-9]
- MIC values, range against all seven bacterial test strains [8]: 1.0 to 31.3 mg/L
- Antimicrobial Activity (MIC) Bs [1]: 3.9 mg/L
- Antimicrobial Activity (MIC) Cg [2]: 2.0 mg/L
- Antimicrobial Activity (MIC) Ml (Micrococcus luteus): 3.9 mg/L
- Antimicrobial Activity (MIC) Sa [3]: 7.8 mg/L
- Antimicrobial Activity (MIC) Bm (Bacillus megaterium): 1.0 mg/L
- Antimicrobial Activity (MIC) Rh (Rhodotorula sp.): 15.6 mg/L
- Antimicrobial Activity (MIC) Ca [4]: 31.3 mg/L
- Antimicrobial Activity (MIC) Ap (Aureobasidium pullulans): 31.3 mg/L
- Antimicrobial Activity (MIC) Ec [5]: 7.8 mg/L
- Antimicrobial Activity (MIC) Pa [6]: 31.3 mg/L

Compound: GKKWGGWKAK-NH2 [StAMP-2]
- Antimicrobial Activity (MIC) Bs [1]: 125 mg/L
- Antimicrobial Activity (MIC) Cg [2]: 31.3 mg/L
- Antimicrobial Activity (MIC) Ml (Micrococcus luteus): 250 mg/L
- Antimicrobial Activity (MIC) Sa [3]: >250 mg/L
- Antimicrobial Activity (MIC) Bm (Bacillus megaterium): 3.9 mg/L
- Antimicrobial Activity (MIC) Rh (Rhodotorula sp.): 62.5 mg/L
- Antimicrobial Activity (MIC) Ca [4]: 125 mg/L
- Antimicrobial Activity (MIC) Ap (Aureobasidium pullulans): 62.5 mg/L
- Antimicrobial Activity (MIC) Ec [5]: >250 mg/L
- Antimicrobial Activity (MIC) Pa [6]: >250 mg/L
